Measurements: patent US20220220561A1, “METHODS AND CLINICAL PROTOCOLS AND KITS PERTAINING TO MAKING AND USING THERAPEUTIC COMPOSITIONS FOR CELLULAR TREATMENT” (ADVANCED REGEN MEDICAL TECHNOLOGIES, LLC, priority 2019, published 2022)

Key:
heterochronic cultures = assay: exosome production, total RNA and miRNA payload in heterochronic cultures; type: cell-based, human
Aged TNCs = assay: cell count and Trypan blue viability of aged TNCs cultured with CaMKP inhibitor; type: cell-based, human
Protocol: Aged TNCs (20×10^6 cells per sample) were cultured with CaMKP inhibitor (FT-0640107 shown below) at the following concentrations 25 uM, 10 uM, 5 uM, 1 uM & 0 (vehicle). After 48 and 72 hours, cells were harvested, counted using Turk's solution and percent viability assessed using Trypan blue exclusion.
At 72 hours following treatment with the CaMPK inhibitor, FT-0640107, or vehicle, cells were harvested, counted and viability measured using Trypan blue exclusion.

Restored cells = assay: transwell co-culture restoration in the presence or absence of manumycin; type: cell-based, human
Source text: Receiver cell samples (i.e., R1, R2, and R3) were individually paired with donor cell samples (i.e., D1, D2, and D3) and the pairs co-cultured in a transwell culture cell for four weeks. The morphology of the cells was studied at 2 weeks into the co-culture and at 4 weeks of co-culture. Gene expression arrays, protein arrays, and telomere length experiments compared freshly defrosted cells from the collection tubes (referred to as the baseline donor cell sample or baseline receiver cell sample) with cells at the 4-week study endpoint (referred to as restored cell samples).
The nature of the soluble particles passing through the permeable membrane in the transwell co-culture experiments was investigated. Specifically, transwell co-culture experiments were carried out in the presence or absence of manumycin. Manumycin, N-[(1S,5S,6R)-5-hydroxy-5-[(1E,3E,5E)-7-[(2-hydroxy-5-oxo-1-cyclopenten-1-yl)amino]-7-oxo-1,3,5-heptatrien-1-yl]-2-oxo-7-oxabicyclo[4.1.0]hept-3-en-3-yl]-2E,4E,6R-trimethyl,2,4-decadienamide, is an antibiotic that acts a potent and selective farnesytransferase inhibitor. Manumycin is also known to inhibit the release of exosomes. […] Further support for the role of exosome/microvesicles in mediating the disclosed cellular restoration process is shown in FIG. 55.

[1] = tested on: serine-threonine protein phosphatases; details: cited from earlier work

CC(NS(=O)(=O)c1ccc2[nH]c(=O)c(=O)[nH]c2c1)C(=O)O (centres unmarked) [BCI-137]
aged MPB clonogenicity (aged MPB; heterochronic cultures treated with inhibitor): significant decrease | exosome production and total RNA content (heterochronic cultures): minimal effect | small and miRNA payload (heterochronic cultures): depleted

Nc1c(S(=O)(=O)O)cc(S(=O)(=O)[O-])c2cccc(O)c12.[Na+] [FT-0640107]
cell number (Aged TNCs; 1 μM, 72 hours, vs vehicle control and 25 μM, donor A04): increase in cell number | viability at 1 µM (Aged TNCs; Homo sapiens, 1 μM, 72 hours, donor A04): 96.3% | viability at 25 µM (Aged TNCs; Homo sapiens, 25 μM, 72 hours, donor A04): 93% | cell viability and number (Aged TNCs; donor A03, 48 or 72 hour): no significant difference

O=C(/C=C/c1ccc(/C=C/C(=O)Nc2ccc(C3=NCCN3)cc2)cc1)Nc1ccc(C2=NCCN2)cc1 [GW4869]
toxicity to aged cultures (aged MPB): extremely toxic | restorative phenotype (aged MPB; blocking global exosome production, data not shown): abrogated the restorative phenotype

CCCC[C@@H](C)/C=C(C)/C=C(\C)C(=O)NC1=C[C@@](O)(/C=C/C=C/C=C/C(=O)NC2=C(O)CCC2=O)[C@@H]2O[C@@H]2C1=O [manumycin, N-[(1S,5S,6R)-5-hydroxy-5-[(1E,3E,5E)-7-[(2-hydroxy-5-oxo-1-cyclopenten-1-yl)amino]-7-oxo-1,3,5-heptatrien-1-yl]-2-oxo-7-oxabicyclo[4.1.0]hept-3-en-3-yl]-2E,4E,6R-trimethyl,2,4-decadienamide]
morphology of restored cells (Restored cells; 5 μM): less robust morphology | telomere length (Restored cells; restored cell sample): decreased | protein expression of restored cell samples (Restored cells; vs absence of manumycin): elevated levels of all proteins investigated | gene expression of restored cell samples (Restored cells; vs changes seen in the absence of manumycin): did not display a change in expression levels

dragmacidin D
inhibition of serine-threonine protein phosphatases [1]: potent inhibitor
